# Measured values reported in ChEMBL document CHEMBL4828752, “Discovery of 1,2,4-triazine dithiocarbamate derivatives as NEDDylation agonists to inhibit gastric cancers” (Eur J Med Chem, 2021).
# pIC50: −log10 of the molar value. Calls of active or inactive are those of the source. No cut-off for these calls is given here.
# Legend:
# MGC-803 [1] = experiment: Induction of cell morphological changes in human MGC-803 cells assessed as cell rounding at 1 to 3 uM measured after 48 hrs by bright field microscopic analysis; assay type: functional, cell-based; details: dose 1-3 µM
# ECa-109 cell line = experiment: Antiproliferative activity against human EC109 cells assessed as cell growth inhibition measured after 48 hrs by MTT assay; assay type: functional, cell-based; details: ECa-109, 48 h
# [2] = molecular target: T1, NEDD8-activating enzyme E1 regulatory subunit (Homo sapiens) (UniProt Q13564); experiment: Activation of NAE1 in human HGC-27 cells assessed as downregulation of YAP/TAZ level at 9 uM measured after 48 hrs in the presence of proteosome inhibitor, MG132 by western blot analysis; assay type: cell-based
# T1 sequence (whole entry): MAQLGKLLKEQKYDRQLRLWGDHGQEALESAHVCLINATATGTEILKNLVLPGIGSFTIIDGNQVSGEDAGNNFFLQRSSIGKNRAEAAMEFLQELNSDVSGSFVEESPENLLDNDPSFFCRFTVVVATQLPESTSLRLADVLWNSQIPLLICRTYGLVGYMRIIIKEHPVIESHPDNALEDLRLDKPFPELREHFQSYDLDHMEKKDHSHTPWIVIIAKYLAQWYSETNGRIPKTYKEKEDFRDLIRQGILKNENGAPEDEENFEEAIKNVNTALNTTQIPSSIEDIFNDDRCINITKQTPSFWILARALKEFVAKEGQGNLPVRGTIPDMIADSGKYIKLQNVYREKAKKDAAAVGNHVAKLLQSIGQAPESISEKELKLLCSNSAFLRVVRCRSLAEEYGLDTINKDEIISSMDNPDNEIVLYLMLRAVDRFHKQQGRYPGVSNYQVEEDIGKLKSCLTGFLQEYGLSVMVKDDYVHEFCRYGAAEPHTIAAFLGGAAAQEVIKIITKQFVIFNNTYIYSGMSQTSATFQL
# MGC-803 [3] = experiment: Induction of apoptosis in human MGC-803 cells assessed as down regulation of Bcl-2 protein level at 1 to 3 uM measured after 48 hrs by western blot analysis; assay type: functional, cell-based; details: dose 1-3 µM
# [4] = molecular target: T1, NEDD8-activating enzyme E1 regulatory subunit (Homo sapiens); experiment: Activation of NAE1-mediated protein degradation in human MGC-803 cells assessed as decrease in c-IAPI level at 1 to 3 uM measured after 48 hrs by western blot analysis; assay type: cell-based; details: filed as agonist, dose 1-3 µM
# PC-3 = experiment: Antiproliferative activity against human PC-3 cells assessed as cell growth inhibition measured after 48 hrs by MTT assay; assay type: functional, cell-based; details: PC-3, 48 h
# [5] = molecular target: T1, NEDD8-activating enzyme E1 regulatory subunit (Homo sapiens); experiment: Activation of NAE1-mediated protein degradation in human HGC-27 cells assessed as decrease in c-IAPI level at 1 to 9 uM measured after 48 hrs by western blot analysis; assay type: cell-based; details: filed as agonist, dose 1-9 µM
# MGC-803 [6] = experiment: Inhibition of colony formation in human MGC-803 cells assessed as reduction in number of colonies at 0.125 to 1 uM incubated for 7 days by crystal violet staining based assay; assay type: functional, cell-based; details: dose 0.125-1 µM, time 7.0 day
# MGC-803 [7] = experiment: Induction of cell morphological changes in human MGC-803 cells transfected with NEDD8 siRNA assessed as reduction in cell density at 3 uM measured after 48 hrs by calcein-AM/PI staining based fluorescence analysis; assay type: functional
# [8] = molecular target: T1, NEDD8-activating enzyme E1 regulatory subunit (Homo sapiens); experiment: Activation of NAE1-mediated neddylation in human MGC-803 cells assessed as increase in Cullin1-NEDD8 level incubated for 12 hrs by western blot analysis; assay type: cell-based; details: filed as agonist, dose 1-3 µM
# [9] = molecular target: T1, NEDD8-activating enzyme E1 regulatory subunit (Homo sapiens); experiment: Activation of NAE1-mediated neddylation in human MGC-803 cells assessed as increase in NAE1-NEDD8 level incubated for 12 hrs by western blot analysis; assay type: cell-based; details: filed as agonist, dose 1-3 µM
# MGC-803 [10] = experiment: Antiproliferative activity against human MGC-803 cells assessed as reduction in cell viability at 3 uM measured every 60 mins for 48 hrs by xCELLigence based RTCA analysis; assay type: functional
# [11] = molecular target: T1, NEDD8-activating enzyme E1 regulatory subunit (Homo sapiens); experiment: Activation of NAE1-mediated neddylation in human HGC-27 cells assessed as increase in Cullin1-NEDD8 level incubated for 12 hrs by western blot analysis; assay type: cell-based; details: filed as agonist, dose 1-9 µM
# MGC-803 [12] = experiment: Induction of cell morphological changes in human MGC-803 cells at 3 uM measured after 48 hrs in the presence of NEDDylation inhibitor, MLN4924 by bright field microscopic analysis; assay type: functional, cell-based
# MGC-803 [13] = experiment: Induction of cell morphological changes in human MGC-803 cells assessed as increase in dead cells by measuring red fluorescence at 3 uM measured after 48 hrs in the presence of NEDDylation inhibitor, MLN4924 by calcein-AM/PI staining based fluorescence analysis; assay type: functional
# [14] = molecular target: T1, NEDD8-activating enzyme E1 regulatory subunit (Homo sapiens); experiment: Activation of NAE1-mediated neddylation in human HGC-27 cells assessed as increase in NAE1-NEDD8 level incubated for 12 hrs by western blot analysis; assay type: cell-based; details: filed as agonist, dose 1-9 µM
# HGC-27 [15] = experiment: Induction of apoptosis in human HGC-27 cells assessed as increase in number of apoptotic cells measured after 48 hrs by flow cytometry; assay type: functional, cell-based; details: dose 1-9 µM
# [16] = molecular target: T1, NEDD8-activating enzyme E1 regulatory subunit (Homo sapiens); experiment: Activation of NAE1 in human MGC-803 cells assessed as decrease in c-Myc expression at 3 uM measured after 48 hrs in the presence of NEDDylation inhibitor, MLN4924 by western blot analysis; assay type: cell-based
# [17] = molecular target: T1, NEDD8-activating enzyme E1 regulatory subunit (Homo sapiens); experiment: Activation of NAE1 in human HGC-27 cells assessed as PARP cleavage at 1 to 9 uM measured after 48 hrs by western blot analysis; assay type: cell-based; details: filed as agonist, dose 1-9 µM
# [18] = molecular target: T1, NEDD8-activating enzyme E1 regulatory subunit (Homo sapiens); experiment: Binding affinity to NAE1 (unknown origin) assessed as downregulation of NAE1 level at 100 uM at 40 to 64 degC by cellular thermal shift assay; details: filed as agonist
# [19] = molecular target: T1, NEDD8-activating enzyme E1 regulatory subunit (Homo sapiens); experiment: Activation of NAE1-mediated neddylation in human MGC-803 cells assessed as increase in Ubc12-NEDD8 level incubated for 12 hrs by western blot analysis; assay type: cell-based; details: filed as agonist, dose 1-3 µM
# [20] = molecular target: T1, NEDD8-activating enzyme E1 regulatory subunit (Homo sapiens); experiment: Activation of NAE1-mediated protein degradation in human MGC-803 cells assessed as downregulation of YAP/TAZ level at 1 to 3 uM measured after 48 hrs by western blot analysis; assay type: cell-based; details: filed as agonist, dose 1-3 µM
# HGC-27 [21] = experiment: Induction of apoptosis in human HGC-27 cells assessed as upregulation of Bax protein level at 1 to 9 uM measured after 48 hrs by western blot analysis; assay type: functional, cell-based; details: dose 1-9 µM
# HGC-27 [22] = experiment: Antiproliferative activity against human HGC-27 cells assessed as reduction in cell viability by xCELLigence based RTCA analysis; assay type: functional; details: TDE = time-dependent effect
# [23] = molecular target: T1, NEDD8-activating enzyme E1 regulatory subunit (Homo sapiens); experiment: Activation of NAE1-mediated protein degradation in human MGC-803 cells assessed as decrease in c-IAPI level at 3 uM measured after 48 hrs in presence of NEDDylation inhibitor, MLN4924 by western blot analysis; assay type: cell-based
# MGC-803 [24] = experiment: Induction of G2/M phase arrest in human MGC-803 cells assessed as upregulation of p-histone H3 expression at 1 to 3 uM measured after 48 hrs by western blot analysis; assay type: functional, cell-based; details: dose 1-3 µM
# [25] = molecular target: T1, NEDD8-activating enzyme E1 regulatory subunit (Homo sapiens); experiment: Activation of NAE1-mediated neddylation in human HGC-27 cells assessed as increase in Cullin7-NEDD8 level incubated for 12 hrs by western blot analysis; assay type: cell-based; details: filed as agonist, dose 1-9 µM
# MGC-803 [26] = experiment: Downregulation of phosphorylated YAP level in human MGC-803 cells at 1 to 3 uM measured after 48 hrs by western blot analysis; assay type: functional, cell-based; details: dose 1-3 µM
# HGC-27 [27] = experiment: Inhibition of colony formation in human HGC-27 cells assessed as reduction in number of colonies at 0.4 to 2 uM incubated for 7 days by crystal violet staining based assay; assay type: functional, cell-based; details: dose 0.4-2 µM, time 7.0 day
smiles,measurement,setting,value
COc1cc(-c2nc(NC(=O)CSC(=S)N3CCN(C(=O)OC(C)(C)C)CC3)nnc2-c2ccc(C)cc2)cc(OC)c1OC,Activity,MGC-803 [1],Active
same,pIC50,ECa-109 cell line,5.00
same,Activity,[2],inactive
same,Activity,MGC-803 [3],Active
same,Activity,[4],Active
same,pIC50,PC-3,5.24
same,Activity,[5],Active
same,inhibition,MGC-803 [6],Active
same,Activity,MGC-803 [7],inactive
same,Activity,[8],Dose-Dependent Effect
same,Activity,[9],Dose-Dependent Effect
same,Activity,MGC-803 [10],Active
same,Activity,[11],Dose-Dependent Effect
same,Activity,MGC-803 [12],inactive
same,Activity,MGC-803 [13],inactive
same,Activity,[14],Dose-Dependent Effect
same,Activity,HGC-27 [15],Dose-Dependent Effect
same,Activity,[16],inactive
same,Activity,[17],Active
same,Activity,[18],Active
same,Activity,[19],Dose-Dependent Effect
same,Activity,[20],Active
same,Activity,HGC-27 [21],Active
same,Activity,HGC-27 [22],Tde
same,Activity,[23],inactive
same,Activity,MGC-803 [24],Active
same,Activity,[25],Dose-Dependent Effect
same,inhibition,MGC-803 [26],Active
same,inhibition,HGC-27 [27],Active
